Source: ChEMBL document CHEMBL5052856, “Inhibitors of apol1 and methods of using same” (2021)

Target: Apolipoprotein L1 (Homo sapiens, UniProt O14791)
Experiment: Inhibition of APOL1 G1 variant in human HEK293-T-REx cells measured by Thallium assay
Assay type: cell-based

Row | Compound | IC50
1 | C[C@@H](CO)NC(=O)NC[C@H]1C[C@H](c2c(-c3ccc(F)cc3)[nH]c3c(F)cc(F)cc32)C1 | > 1000 nM
2 | CC(CO)NC(=O)[C@H]1C[C@@H](c2c(-c3ccc(F)cc3)[nH]c3c(F)cc(F)cc32)C1 (some centres not stated) | > 1000 nM
3 | O=C(NC(CO)(CO)CO)[C@H]1C[C@H](c2c(-c3ccc(F)cc3)[nH]c3c(F)cc(F)cc32)C1 | < 250 nM
4 | C[C@@H](O)[C@@H](CO)NC(=O)O[C@H]1C[C@H](c2c(-c3ccc(F)cc3)[nH]c3c(F)cc(F)cc32)C1 | > 1000 nM
5 | CNC(=O)CNC[C@H]1C[C@H](c2c(-c3ccc(F)cc3)[nH]c3c(F)cc(F)cc32)C1 | < 250 nM
6 | COC1CC1NC(=O)O[C@H]1C[C@H](c2c(-c3ccc(F)cc3)[nH]c3c(F)cc(F)cc32)C1 (some centres not stated) | > 1000 nM
7 | O=C(NCc1cnco1)O[C@H]1C[C@H](c2c(-c3ccc(F)cc3)[nH]c3c(F)cc(F)cc32)C1 | 0.25 nM
8 | O=C(NCC1CCOC1)C1CC(Cc2c(-c3ccc(F)cc3)[nH]c3c(F)cc(F)cc23)C1 (configuration not stated) | > 1000 nM
9 | O=C(N[C@H]1COC[C@@H]1O)O[C@H]1C[C@H](c2c(-c3ccc(F)cc3)[nH]c3c(F)cc(F)cc32)C1 | > 1000 nM
10 | COC1(CNC(=O)C2CC(Cc3c(-c4ccc(F)cc4)[nH]c4c(F)cc(F)cc34)C2)CCOC1 (configuration not stated) | > 1000 nM
11 | C[C@@H](NCC1CC(c2c(-c3ccc(F)cc3)[nH]c3c(F)cc(F)cc23)C1)C(=O)N(C)C (some centres not stated) | > 1000 nM
12 | O=C(NCCO)[C@H]1C[C@@H](c2c(-c3ccc(F)cc3)[nH]c3c(F)cc(F)cc32)C1 | 0.25 nM
13 | O=C(CC1CC(c2c(-c3ccc(F)cc3)[nH]c3c(F)cc(F)cc23)C1)N[C@@H](CO)C(F)(F)F (some centres not stated) | > 1000 nM
14 | O=C(NCc1cn(CC(F)(F)F)cn1)O[C@H]1C[C@H](c2c(-c3ccc(F)cc3)[nH]c3c(F)cc(F)cc32)C1 | > 1000 nM
15 | CC1(O)CC(NC(=O)C2CC(Cc3c(-c4ccc(F)cc4)[nH]c4c(F)cc(F)cc34)C2)C1 (configuration not stated) | > 1000 nM
16 | C[C@@H](CO)NC(=O)CC1CC(c2c(-c3ccc(F)cc3)[nH]c3c(F)cc(F)cc23)C1 (some centres not stated) | > 1000 nM
17 | C[C@H](CO)NC(=O)CNC(=O)[C@H]1C[C@H](c2c(-c3ccc(F)cc3)[nH]c3c(F)cc(F)cc32)C1 | > 1000 nM
18 | O=C(NC1CCOC1)O[C@H]1C[C@H](c2c(-c3ccc(F)cc3)[nH]c3c(F)cc(F)cc32)C1 (some centres not stated) | > 1000 nM
19 | CC(CO)(CO)NC(=O)NC[C@H]1C[C@H](c2c(-c3ccc(F)cc3)[nH]c3c(F)cc(F)cc32)C1 | > 1000 nM

Row | Compound | IC50
20 | C[C@H](O)CNC(=O)O[C@H]1C[C@H](c2c(-c3ccc(F)cc3)[nH]c3c(F)cc(F)cc32)C1 | > 1000 nM
21 | O=C1NCCC1NC(=O)[C@H]1C[C@@H](c2c(-c3ccc(F)cc3)[nH]c3c(F)cc(F)cc32)C1 (some centres not stated) | > 1000 nM
22 | O=C(NC(CO)(CO)CO)[C@H]1C[C@@H](c2c(-c3ccc(F)cc3)[nH]c3c(F)cc(F)cc32)C1 | 0.25 nM
23 | CN(CC1CC(c2c(-c3ccc(F)cc3)[nH]c3c(F)cc(F)cc23)C1)C(=O)NCCO (configuration not stated) | > 1000 nM
24 | Cc1nn(C)cc1CNC(=O)C1CC(Cc2c(-c3ccc(F)cc3)[nH]c3c(F)cc(F)cc23)C1 (configuration not stated) | > 1000 nM
25 | O=C([C@H]1C[C@@H](c2c(-c3ccc(F)cc3)[nH]c3c(F)cc(F)cc32)C1)N1C[C@@H](O)[C@H](O)C1 | > 1000 nM
26 | CC[C@H](CO)NC(=O)NC[C@H]1C[C@H](c2c(-c3ccc(F)cc3)[nH]c3c(F)cc(F)cc32)C1 | > 1000 nM
27 | O=C(NCCn1cncn1)[C@H]1C[C@@H](c2c(-c3ccc(F)cc3)[nH]c3c(F)cc(F)cc32)C1 | > 1000 nM
28 | CC1(CNC(=O)C2CC(Cc3c(-c4ccc(F)cc4)[nH]c4c(F)cc(F)cc34)C2)CCOC1 (configuration not stated) | > 1000 nM
29 | CC1(C(=O)N[C@H]2CCNC2=O)CC(c2c(-c3ccc(F)cc3)[nH]c3c(F)cc(F)cc23)C1 (some centres not stated) | 0.25 nM
30 | O=C(NCc1ccoc1)C1CC(Cc2c(-c3ccc(F)cc3)[nH]c3c(F)cc(F)cc23)C1 (configuration not stated) | > 1000 nM
31 | O=C(N[C@@H]1CCNC1=O)O[C@H]1C[C@H](c2c(-c3ccc(F)cc3)[nH]c3c(F)cc(F)cc32)C1 | 0.25 nM
32 | O=C(NC[C@H]1C[C@H](c2c(-c3ccc(F)cc3)[nH]c3c(F)cc(F)cc32)C1)NC1(CO)CCOC1 (some centres not stated) | > 1000 nM
33 | O=C(NC[C@H]1C[C@H](c2c(-c3ccc(F)cc3)[nH]c3c(F)cc(F)cc32)C1)N[C@H]1CC[C@H]1O | > 1000 nM
34 | O=C(NC1(CO)CC(F)(F)C1)C1CC(Cc2c(-c3ccc(F)cc3)[nH]c3c(F)cc(F)cc23)C1 (configuration not stated) | > 1000 nM
35 | CC(C)C(CO)NC(=O)[C@H]1C[C@@H](c2c(-c3ccc(F)cc3)[nH]c3c(F)cc(F)cc32)C1 (some centres not stated) | > 1000 nM
36 | O=C(CC1CC(c2c(-c3ccc(F)cc3)[nH]c3c(F)cc(F)cc23)C1)N[C@H]1CCNC1=O (some centres not stated) | > 1000 nM
37 | O=C(NCC1CCNC1=O)NC[C@H]1C[C@H](c2c(-c3ccc(F)cc3)[nH]c3c(F)cc(F)cc32)C1 (some centres not stated) | > 1000 nM
38 | O=C(CNC[C@H]1C[C@H](c2c(-c3ccc(F)cc3)[nH]c3c(F)cc(F)cc32)C1)NCO | < 250 nM

Row | Compound | IC50
39 | CC1(NC(=O)C2CC(Cc3c(-c4ccc(F)cc4)[nH]c4c(F)cc(F)cc34)C2)CCOC1 (configuration not stated) | > 1000 nM
40 | Cn1cnc(CNC(=O)[C@H]2C[C@@H](c3c(-c4ccc(F)cc4)[nH]c4c(F)cc(F)cc43)C2)c1 | > 1000 nM
41 | O=C(N[C@H]1CCNC1=O)O[C@H]1C[C@H](c2c(-c3ccc(F)cc3)[nH]c3c(F)cc(F)cc32)C1 (relative stereo) | > 1000 nM
42 | O=C(CNC(=O)[C@H]1C[C@H](c2c(-c3ccc(F)cc3)[nH]c3c(F)cc(F)cc32)C1)NC[C@H](O)C(F)(F)F | > 1000 nM
43 | O=C(NCC(F)F)N1CC(c2c(-c3ccc(F)cc3)[nH]c3c(F)cc(F)cc23)C1 | 0.25 nM
44 | C[C@H](CO)NC(=O)CC1CC(c2c(-c3ccc(F)cc3)[nH]c3c(F)cc(F)cc23)C1 (some centres not stated) | > 1000 nM
45 | CN(CC1CC(c2c(-c3ccc(F)cc3)[nH]c3c(F)cc(F)cc23)C1)C(=O)N1CCC1 (configuration not stated) | > 1000 nM
46 | CC(C)NC(=O)CN[C@H]1C[C@H](c2c(-c3ccc(F)cc3)[nH]c3c(F)cc(F)cc32)C1 | > 1000 nM
47 | CC(C)NC(=O)CNC[C@H]1C[C@H](c2c(-c3ccc(F)cc3)[nH]c3c(F)cc(F)cc32)C1 | > 1000 nM
48 | O=C(N[C@H](CO)C(F)(F)F)O[C@H]1C[C@H](c2c(-c3ccc(F)cc3)[nH]c3c(F)cc(F)cc32)C1 | > 1000 nM
49 | NC(=O)CNC(=O)[C@H]1C[C@@H](c2c(-c3ccc(F)cc3)[nH]c3c(F)cc(F)cc32)C1 | > 1000 nM
50 | CCNC(=O)NC[C@H]1C[C@H](c2c(-c3ccc(F)cc3)[nH]c3c(F)cc(F)cc32)C1 | > 1000 nM
51 | O=C(N[C@@H]1CCOC1)[C@H]1C[C@@H](c2c(-c3ccc(F)cc3)[nH]c3c(F)cc(F)cc32)C1 | > 1000 nM
52 | CC(C)C(CO)NC(=O)O[C@H]1C[C@H](c2c(-c3ccc(F)cc3)[nH]c3c(F)cc(F)cc32)C1 (some centres not stated) | > 1000 nM
53 | CC(C)C[C@H](CO)NC(=O)C1CC(Cc2c(-c3ccc(F)cc3)[nH]c3c(F)cc(F)cc23)C1 (some centres not stated) | > 1000 nM
54 | Cn1ccnc1CNC(=O)C1CC(Cc2c(-c3ccc(F)cc3)[nH]c3c(F)cc(F)cc23)C1 (configuration not stated) | > 1000 nM
55 | COCCNC(=O)CC1CC(c2c(-c3ccc(F)cc3)[nH]c3c(F)cc(F)cc23)C1 (configuration not stated) | > 1000 nM
56 | CC1(O)CC(NC(=O)O[C@H]2C[C@H](c3c(-c4ccc(F)cc4)[nH]c4c(F)cc(F)cc43)C2)C1 (some centres not stated) | > 1000 nM

Other lines, results leading:

Row | IC50 | Compound
57 | > 1000 nM | CN(C(=O)NC[C@H]1C[C@H](c2c(-c3ccc(F)cc3)[nH]c3c(F)cc(F)cc32)C1)C1COCC1O (some centres not stated)
58 | > 1000 nM | O=C(NCc1ccc[nH]c1=O)C1CC(Cc2c(-c3ccc(F)cc3)[nH]c3c(F)cc(F)cc23)C1 (configuration not stated)
59 | > 1000 nM | CC(C)(O)CNC(=O)NC[C@H]1C[C@H](c2c(-c3ccc(F)cc3)[nH]c3c(F)cc(F)cc32)C1
60 | > 1000 nM | O=C(NCC1CC(F)(F)C1)C1CC(Cc2c(-c3ccc(F)cc3)[nH]c3c(F)cc(F)cc23)C1 (configuration not stated)
61 | > 1000 nM | COCC1(CNC(=O)C2CC(Cc3c(-c4ccc(F)cc4)[nH]c4c(F)cc(F)cc34)C2)CC1 (configuration not stated)
62 | 0.25 nM | CC(C)(CO)NC(=O)[C@H]1C[C@@H](c2c(-c3ccc(F)cc3)[nH]c3c(F)cc(F)cc32)C1
63 | > 1000 nM | O=C1NCCCC1NC(=O)[C@H]1C[C@@H](c2c(-c3ccc(F)cc3)[nH]c3c(F)cc(F)cc32)C1 (some centres not stated)
64 | > 1000 nM | O=C(NC1CC(O)C1)[C@H]1C[C@@H](c2c(-c3ccc(F)cc3)[nH]c3c(F)cc(F)cc32)C1 (some centres not stated)
65 | > 1000 nM | COCCNC(=O)[C@H]1C[C@@H](c2c(-c3ccc(F)cc3)[nH]c3c(F)cc(F)cc32)C1
66 | 0.25 nM | CON(C)C(=O)CNC[C@H]1C[C@H](c2c(-c3ccc(F)cc3)[nH]c3c(F)cc(F)cc32)C1
67 | > 1000 nM | Cc1cnc(CNC(=O)O[C@H]2C[C@H](c3c(-c4ccc(F)cc4)[nH]c4c(F)cc(F)cc43)C2)o1
68 | > 1000 nM | O=C(NCC1CC(F)(F)C1)[C@H]1C[C@@H](c2c(-c3ccc(F)cc3)[nH]c3c(F)cc(F)cc32)C1
69 | > 1000 nM | C[C@H](CO)NC(=O)[C@H]1C[C@@H](c2c(-c3ccc(F)cc3)[nH]c3c(F)cc(F)cc32)C1
70 | > 1000 nM | NC(=O)CN[C@H]1C[C@H](c2c(-c3ccc(F)cc3)[nH]c3c(F)cc(F)cc32)C1
71 | > 1000 nM | Cn1nccc1CNC(=O)[C@H]1C[C@@H](c2c(-c3ccc(F)cc3)[nH]c3c(F)cc(F)cc32)C1
72 | > 1000 nM | C[C@H](CO)NC(=O)C1CCC(c2c(-c3ccc(F)cc3)[nH]c3c(F)cc(F)cc23)C1 (some centres not stated)
73 | > 1000 nM | O=C(NC[C@H]1C[C@H](c2c(-c3ccc(F)cc3)[nH]c3c(F)cc(F)cc32)C1)N[C@H]1CC[C@H](O)C1
74 | > 1000 nM | O=C(N[C@H]1CCOC1=O)C1CC(Cc2c(-c3ccc(F)cc3)[nH]c3c(F)cc(F)cc23)C1 (some centres not stated)
75 | < 250 nM | O=C(NC1(CO)CC1)C1(F)CC(c2c(-c3ccc(F)cc3)[nH]c3c(F)cc(F)cc23)C1 (configuration not stated)
76 | > 1000 nM | CC1(NC(=O)C2CC(Cc3c(-c4ccc(F)cc4)[nH]c4c(F)cc(F)cc34)C2)CCNC1=O (configuration not stated)
77 | > 1000 nM | CN(CC1CC(c2c(-c3ccc(F)cc3)[nH]c3c(F)cc(F)cc23)C1)C(=O)NCc1cn(C)cn1 (configuration not stated)
78 | > 1000 nM | CNC(=O)N(C)CC1CC(c2c(-c3ccc(F)cc3)[nH]c3c(F)cc(F)cc23)C1 (configuration not stated)
79 | > 1000 nM | CC(C)CC(NCC1CC(c2c(-c3ccc(F)cc3)[nH]c3c(F)cc(F)cc23)C1)C(N)=O (configuration not stated)
80 | > 1000 nM | O=C(NCc1cocn1)C1CC(Cc2c(-c3ccc(F)cc3)[nH]c3c(F)cc(F)cc23)C1 (configuration not stated)
81 | > 1000 nM | O=C(NC1CCNC1=O)N[C@H]1C[C@H](c2c(-c3ccc(F)cc3)[nH]c3c(F)cc(F)cc32)C1 (some centres not stated)
82 | > 1000 nM | O=C(N[C@H]1CCOC1)O[C@H]1C[C@H](c2c(-c3ccc(F)cc3)[nH]c3c(F)cc(F)cc32)C1
